The results in this text go back to PubChem BioAssay AID328 (DTP/NCI, 2004).

The test deals with BDF1 mice, P388 leukemia ip, median survival T/C. As to the kind of experiment: NCI In Vivo Anticancer Drug Screen. Data for tumor model P388 Leukemia (intraperitoneal) in B6D2F1 (BDF1) mice. The note with it: endpoint: median survival time, higher = longer survival. The gist of the method: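 Transplantable tumour in mice; compound vs vehicle dosing; survival scored; ratio of treated to control reported.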

[1] abbreviates: dose: 100.0 mg/kg/injection, schedule: Q01DX001 (ip), vehicle: saline with Tween-80.
[2] abbreviates: dose: 200.0 mg/kg/injection, schedule: Q01DX001 (ip), vehicle: saline with Tween-80.
[3] abbreviates: dose: 400.0 mg/kg/injection, schedule: Q01DX001 (ip), vehicle: saline with Tween-80.
[4] abbreviates: dose: 12.5 mg/kg/injection, schedule: Q01DX009 (ip), vehicle: saline with Tween-80.
Setting [5] is: dose: 25.0 mg/kg/injection, schedule: Q01DX009 (ip), vehicle: saline with Tween-80.
Where [6] appears, read: dose: 100.0 mg/kg/injection, schedule: Q01DX009 (ip), vehicle: Klucel (hydroxypropylcellulose) (HPC).
The mark [7] stands for this setting: dose: 200.0 mg/kg/injection, schedule: Q01DX009 (ip), vehicle: Klucel (hydroxypropylcellulose) (HPC).
Setting [8] is: dose: 50.0 mg/kg/injection, schedule: Q01DX009 (ip), vehicle: saline with Tween-80.
The mark [9] stands for this setting: dose: 100.0 mg/kg/injection, schedule: Q01DX009 (ip), vehicle: saline with Tween-80.
[10] abbreviates: dose: 100.0 mg/kg/injection, schedule: Q04DX003 (ip), vehicle: Klucel (hydroxypropylcellulose) (HPC).
The mark [11] stands for this setting: dose: 200.0 mg/kg/injection, schedule: Q04DX003 (ip), vehicle: Klucel (hydroxypropylcellulose) (HPC).
[12] abbreviates: dose: 400.0 mg/kg/injection, schedule: Q04DX003 (ip), vehicle: Klucel (hydroxypropylcellulose) (HPC).
Setting [13] is: dose: 50.0 mg/kg/injection, schedule: Q01DX009 (ip), vehicle: saline.

Values joined by “and” are separate entries in the source; they are usually repeats but may differ in a detail not shown here. Equal entries are not always repeated. Inconclusive results and toxic doses are left out.

Take `OC(COc1ccccc1)CC(O)(C(F)(F)F)C(F)(F)F` (stereo not drawn): the T/C is, setting by setting: under setting [1], 95 % of control; under setting [2], 104 % of control; under setting [3], 104 % of control.

As for `C[N+](C)(Cc1ccccc1)CC(O)COc1ccccc1` (stereo not drawn), the T/C under setting [4] is 96 % of control; the T/C (dose: 12.5 mg/kg/injection, schedule: Q04DX003 (ip), vehicle: saline with Tween-80) was 118 % of control; the T/C under setting [5] was 103 % of control; the T/C (dose: 25.0 mg/kg/injection, schedule: Q04DX003 (ip), vehicle: saline with Tween-80) was 113 % of control; the T/C (dose: 50.0 mg/kg/injection, schedule: Q04DX003 (ip), vehicle: saline with Tween-80) was 104 % of control.

With `Cc1ccc(C)c(NC(=O)c2ccc(Cl)cc2)c1`, the T/C runs as follows: under setting [1], 104 % of control; under setting [2], 104 % of control; under setting [3], 100 % of control.

Consider `O=S1(=O)CCN(C2CCCC2)CC1`, for which the T/C reads like this: (dose: 50.0 mg/kg/injection, schedule: Q01DX009 (ip), vehicle: Klucel (hydroxypropylcellulose) (HPC)) 104 % of control; under setting [6], 121 % of control; under setting [7], 111 % of control.

In the case of `O=C(c1ccc[nH]1)C(Cl)(Cl)Cl`, the T/C is 108 % of control under setting [8]; 117 % of control under setting [9]; 115 % of control (dose: 200.0 mg/kg/injection, schedule: Q01DX009 (ip), vehicle: saline with Tween-80).

As for `COc1ccc2[nH]c3c(C)c4ccncc4c(C)c3c2c1`, the T/C by setting is: (dose: 4.68 mg/kg/injection, schedule: Q01DX009 (ip), vehicle: water) 117 % of control; (dose: 9.37 mg/kg/injection, schedule: Q01DX009 (ip), vehicle: water) 88 % of control; (dose: 9.37 mg/kg/injection, schedule: Q04DX003 (ip), vehicle: water) 176 % of control; (dose: 18.5 mg/kg/injection, schedule: Q01DX009 (ip), vehicle: other) 87 % of control; (dose: 18.5 mg/kg/injection, schedule: Q04DX003 (ip), vehicle: water) 188 % of control; (dose: 18.75 mg/kg/injection, schedule: Q01DX001 (ip), vehicle: other) 112 % of control. Further, the T/C by setting is: (dose: 18.75 mg/kg/injection, schedule: Q01DX001 (ip), vehicle: water) 176 % of control; (dose: 18.75 mg/kg/injection, schedule: Q01DX009 (ip), vehicle: water) 94 % of control; (dose: 37.5 mg/kg/injection, schedule: Q01DX001 (ip), vehicle: other) 116 % of control; (dose: 37.5 mg/kg/injection, schedule: Q01DX001 (ip), vehicle: water) 164 % of control; (dose: 37.5 mg/kg/injection, schedule: Q04DX003 (ip), vehicle: other) 158 % of control; (dose: 75.0 mg/kg/injection, schedule: Q01DX001 (ip), vehicle: water) 200 % of control. In addition, where the note is “dose: 75.0 mg/kg/injection, schedule: Q04DX003 (ip), vehicle: other”, the T/C was 95 % of control.

Turning to `CN(C)c1ccc(Cc2ccc(N(C)C)nc2)cn1`, the T/C is 100 % of control under setting [6]; 95 % of control under setting [10]; 110 % of control under setting [7]; 100 % of control under setting [11]; 100 % of control (dose: 400.0 mg/kg/injection, schedule: Q01DX009 (ip), vehicle: Klucel (hydroxypropylcellulose) (HPC)); 95 % of control under setting [12].

Turning to `O=C/C=C/c1cccc([N+](=O)[O-])c1`, the T/C is, setting by setting: under setting [5], 110 % of control; under setting [8], 115 % of control; under setting [9], 119 % of control.

With `COc1ccc(C(Cn2ccnc2)Sc2ccc(Cl)c(Cl)c2)cc1` (stereo not drawn), the T/C under setting [4] was 105 % of control; the T/C under setting [5] was 110 % of control; the T/C under setting [8] is 120 % of control; the T/C under setting [9] is 93 % of control and 119 % of control.

For `CCCCN(C)N=Nc1c(C(N)=O)n[nH]c1C`, the T/C runs as follows: (dose: 22.0 mg/kg/injection, schedule: Q01DX009 (ip), vehicle: saline with Tween-80) 122 % of control; under setting [5], 120 % of control; under setting [8], 154 % of control; (dose: 88.0 mg/kg/injection, schedule: Q04DX003 (ip), vehicle: Klucel (hydroxypropylcellulose) (HPC)) 109 % of control.

Take `CC1CCC2(OC1)OC1CC3C4CCC5CC(O)C(O)CC5(C)C4CCC3(C)C1C2C` (stereo not drawn): the T/C runs as follows: (dose: 100.0 mg/kg/injection, schedule: Q04DX003 (ip), vehicle: other) 91 % of control; (dose: 200.0 mg/kg/injection, schedule: Q04DX003 (ip), vehicle: other) 87 % of control; (dose: 400.0 mg/kg/injection, schedule: Q04DX003 (ip), vehicle: other) 87 % of control.

`CC(C)(C)C1CNP(=O)(c2ccccc2)OC1` (stereo not drawn): the T/C (dose: 50.0 mg/kg/injection, schedule: Q01DX005 (ip), vehicle: saline with Tween-80) is 99 % of control; the T/C (dose: 100.0 mg/kg/injection, schedule: Q01DX005 (ip), vehicle: saline with Tween-80) is 101 % of control; the T/C (dose: 200.0 mg/kg/injection, schedule: Q01DX005 (ip), vehicle: saline with Tween-80) is 100 % of control.

With `O/N=C(\C[n+]1ccccc1)c1ccc2ccccc2c1`, the T/C (dose: 1.56 mg/kg/injection, schedule: Q01DX009 (ip), vehicle: Klucel (hydroxypropylcellulose) (HPC)) was 113 % of control; the T/C (dose: 3.12 mg/kg/injection, schedule: Q01DX009 (ip), vehicle: Klucel (hydroxypropylcellulose) (HPC)) was 120 % of control; the T/C (dose: 3.12 mg/kg/injection, schedule: Q01DX009 (ip), vehicle: saline) was 107 % of control; the T/C (dose: 6.25 mg/kg/injection, schedule: Q01DX009 (ip), vehicle: Klucel (hydroxypropylcellulose) (HPC)) is 122 % of control; the T/C (dose: 6.25 mg/kg/injection, schedule: Q01DX009 (ip), vehicle: saline) was 120 % of control; the T/C under setting [13] was 106 % of control.

`COc1ccc(-c2nc3c(=O)n(C)c(=O)n(C)c3nc2-c2ccc(OC)cc2)cc1`: the T/C was 104 % of control (dose: 100.0 mg/kg/injection, schedule: Q04DX002 (ip), vehicle: saline with Tween-80); 97 % of control (dose: 200.0 mg/kg/injection, schedule: Q04DX002 (ip), vehicle: saline with Tween-80); 97 % of control (dose: 400.0 mg/kg/injection, schedule: Q04DX002 (ip), vehicle: saline with Tween-80).

Consider `C(/C=C\c1ccccc1)=Nc1ccccc1`, for which the T/C (dose: 25.0 mg/kg/injection, schedule: Q01DX009 (ip), vehicle: saline) was 91 % of control; the T/C (dose: 25.0 mg/kg/injection, schedule: Q04DX003 (ip), vehicle: saline) was 95 % of control; the T/C under setting [13] was 95 % of control; the T/C (dose: 50.0 mg/kg/injection, schedule: Q04DX003 (ip), vehicle: saline) is 100 % of control; the T/C (dose: 88.0 mg/kg/injection, schedule: Q01DX009 (ip), vehicle: saline with Tween-80) was 105 % of control; the T/C (dose: 100.0 mg/kg/injection, schedule: Q01DX009 (ip), vehicle: saline) was 104 % of control. Besides, the T/C reads like this: (dose: 100.0 mg/kg/injection, schedule: Q04DX003 (ip), vehicle: saline with Tween-80) 104 % of control; (dose: 100.0 mg/kg/injection, schedule: Q04DX003 (ip), vehicle: saline) 100 % of control; (dose: 132.0 mg/kg/injection, schedule: Q01DX009 (ip), vehicle: saline with Tween-80) 110 % of control; (dose: 200.0 mg/kg/injection, schedule: Q04DX003 (ip), vehicle: saline with Tween-80) 118 % of control; (dose: 300.0 mg/kg/injection, schedule: Q01DX009 (ip), vehicle: saline with Tween-80) 110 % of control; (dose: 400.0 mg/kg/injection, schedule: Q01DX009 (ip), vehicle: saline with Tween-80) 150 % of control. Further, the T/C (dose: 400.0 mg/kg/injection, schedule: Q04DX003 (ip), vehicle: saline with Tween-80) is 118 % of control.

As for `CC(=O)N1CSCC1C(=O)O` (stereo not drawn), the T/C under setting [10] is 100 % of control, the T/C under setting [11] is 100 % of control and the T/C under setting [12] is 100 % of control.
